From paper PMC9658586, “1,4-Naphthoquinone Motif in the Synthesis of New Thiopyrano[2,3-d]thiazoles as Potential Biologically Active Compounds” (Molecules, 2022)

How the values were obtained:
[1] = system: MCF7/Breast Cancer; test: NCI single-dose screen, MCF7; format: cell-based, human; conditions: 10 μM, 48 h
Method: (§1) Considering the results of previous studies of fused thiazolidinones and their analogs, a series of thiopyrano[2,3-d]thiazoles with naphthoquinone fragments in the structure were studied for their anticancer activity. Thus, synthesized thiopyranothiazole derivatives 3.5 and 3.6 were selected by the National Cancer Institute (NCI), U.S., for their anticancer activity at 10 μM concentration toward a panel of sixty cancer cell lines representing nine different types (leukemia, melanoma, lung, colon, CNS, ovarian, renal, prostate, and breast cancers) (Figures S13–S14). Selection for screening based on new derivatives’ ability to add diversity to the NCI small molecules collection and anticancer assays were performed according to the NCI guidelines and protocols previously described. The compounds were added at the mentioned concentration, and the cell cultures were incubated for 48 h. The results for each compound were reported as the growth percent (GP%) of treated cells compared with untreated control cells.
(§2) Anticancer in vitro assay was performed on the human tumor cell lines panel derived from nine neoplastic diseases by the protocol of the Drug Evaluation Branch, National Cancer Institute, Bethesda, MD, USA [44, 45, 46]. […] GP% was spectrophotometrically evaluated vs. controls not treated with test agents.

[2] = system: UO-31/Renal Cancer; test: NCI single-dose screen, UO-31; format: cell-based, human; conditions: 10 μM, 48 h
Method: as §1, §2

[3] = system: MALME-3M/Melanoma; test: NCI single-dose screen, MALME-3M; format: cell-based, human; conditions: 10 μM, 48 h
Method: as §1, §2

[4] = system: salmon sperm DNA; test: Spectroscopic DNA interaction assay (KMnO4 oxidation); format: binding; conditions: DNA + compound + KMnO4, time- and concentration-dependent, up to 3 h; binder if >0.05 or <−0.05
Source text: The method investigates conformational changes in the DNA; for example, when DNA is exposed to an intercalating, alkylation, or other classes of DNA-binding agents. It is based on the oxidative reaction of potassium permanganate with pyrimidine bases. Compounds that interact with DNA distort its duplex structure, thus exposing pyrimidine bases for oxidation by KMnO4, which generates products that can be detected by spectrophotometry. Different classes of DNA-binding compounds can be studied in such a way. […] Net A405 ranged from 0.00 to 0.50 in the presence of the compound, and Net A405 ranged from 0.02 to 0.045 in the control case (Figure 9).
A spectroscopic DNA interaction study was performed as previously described. salmon sperm DNA (Sigma-Aldrich, USA) was diluted in Milli-Q water at 4 °C for 24 h at 1.65 mg/mL. Tested compounds were dissolved in acetone. After 1 h of incubation of DNA and compound, KMnO4 was added to a final concentration of 0.3 mM and the absorbance at 405 nm was measured (Absorbance Reader BioTek ELx800) (BioTek Instruments, Inc., Winooski, VT, USA) in different periods up to 3 h. Appropriate controls of DNA alone and compound alone were included, and these Abs values were subtracted from the test sample to provide the net change in absorbance (NetAbs). […]

[5] = system: LOX IMVI/Melanoma; test: NCI single-dose screen, LOX IMVI; format: cell-based, human; conditions: 10 μM, 48 h
Method: as §1, §2

[6] = system: SK-MEL-2/Melanoma; test: NCI single-dose screen, SK-MEL-2; format: cell-based, human; conditions: 10 μM, 48 h
Method: as §1, §2

[7] = system: SNB-75/ Central Nervous System Cancer; test: NCI single-dose screen, SNB-75; format: cell-based, human; conditions: 10 μM, 48 h
Method: as §1, §2

[8] = system: M14/ADR-RES/ Melanoma; test: NCI single-dose screen, M14/ADR-RES; format: cell-based, human; conditions: 10 μM, 48 h
Method: (§3) Selection for screening based on new derivatives’ ability to add diversity to the NCI small molecules collection and anticancer assays were performed according to the NCI guidelines and protocols previously described. The compounds were added at the mentioned concentration, and the cell cultures were incubated for 48 h.
as §2, with “46]. Tested compounds were added to the culture at a single concentration (10^−5 M), and the cultures were incubated for 48 h.” for “46].”

[9] = system: SK-MEL-5/Melanoma; test: NCI single-dose screen, SK-MEL-5; format: cell-based, human; conditions: 10 μM, 48 h
Method: as §3
as §2, with “46]. Tested compounds were added to the culture at a single concentration (10^−5 M), and the cultures were incubated for 48 h.” for “46].”

[10] = system: A498/ Renal Cancer; test: NCI single-dose screen, A498; format: cell-based, human; conditions: 10 μM, 48 h
Method: as §1, §2

[11] = system: COLO-205/ Colon Cancer; test: NCI single-dose screen, COLO-205; format: cell-based, human; conditions: 10 μM, 48 h
Method: as §1, §2

Row | Compound | Most Sensitive Cell Line Growth, % (MCF7/Breast Cancer) [1] | Most Sensitive Cell Line Growth, % (UO-31/Renal Cancer) [2] | Most Sensitive Cell Line Growth, % (MALME-3M/Melanoma) [3] | Net A405 (net change in absorbance) [4] | Most Sensitive Cell Line Growth, % (LOX IMVI/Melanoma) [5] | Most Sensitive Cell Line Growth, % (SK-MEL-2/Melanoma) [6] | Most Sensitive Cell Line Growth, % (SNB-75/ Central Nervous System Cancer) [7] | Most Sensitive Cell Line Growth, % (M14/ADR-RES/ Melanoma) [8] | Most Sensitive Cell Line Growth, % (SK-MEL-5/Melanoma) [9] | Most Sensitive Cell Line Growth, % (A498/ Renal Cancer) [10] | Most Sensitive Cell Line Growth, % (COLO-205/ Colon Cancer) [11]
1 | O=C1C2=C(C(=O)c3ccccc31)C(CCc1ccccc1)c1sc(=O)[nH]c1S2 (centres unmarked) [Compound 3.6, 11-Phenethyl-3,11-dihydro-2H-benzo[6,7]thiochromeno[2,3-d]thiazole-2,5,10-trione] | 58.83% | 51.76% | 45.25% | 0.00 to 0.50 | 57.17% | – | – | – | – | – | –
2 | COc1cccc2c1C(=O)c1c(O)c3c(c(O)c1C2=O)C[C@@](O)(C(=O)CO)C[C@@H]3O[C@H]1C[C@H](N)[C@H](O)[C@H](C)O1 [Doxorubicin, doxorubicin, reference compound] | – | – | – | – | – | −82.60% | −76.10% | −71.60% | −86.40% | −75.10% | −81.60%
